Organism: Rattus norvegicus
Experiment: DrugMatrix - Regimen: Daily Repeat
Format: toxicity, organism-based, Sprague-Dawley
Design: regimen Daily Repeat, gender Male, age 6-8 weeks
Conditions: in vivo, po, 1 mg/kg, route oral GAVAGE, dose level Low, vehicle .5 % CMC; for ABSOLUTE BASOPHIL / ABSOLUTE EOSINOPHIL / ABSOLUTE LYMPHOCYTE / ABSOLUTE MONOCYTE / ABSOLUTE SEGMENTED NEUTROPHIL / BASOPHIL / EOSINOPHIL / ERYTHROCYTE COUNT / HEMATOCRIT / HEMOGLOBIN / LEUKOCYTE COUNT / LYMPHOCYTE / MEAN CORPUSCULAR HEMOGLOBIN / MEAN CORPUSCULAR HEMOGLOBIN CONCENTRATION / MEAN CORPUSCULAR VOLUME / MONOCYTE / NEUTROPHIL / NUCLEATED RED BLOOD CELLS / PLATELET COUNT: tissue Blood; for ALANINE AMINOTRANSFERASE / ALBUMIN / ALKALINE PHOSPHATASE / ASPARTATE AMINOTRANSFERASE / BLOOD UREA NITROGEN / CARBON DIOXIDE / CHLORIDE / CHOLESTEROL / CREATINE PHOSPHOKINASE / CREATININE / GLUCOSE / LACTATE DEHYDROGENASE / LIPASE / PHOSPHORUS / POTASSIUM / SODIUM / TOTAL BILIRUBIN / TOTAL PROTEIN / URIC ACID: tissue Plasma

C[C@]12C=CC(=O)C=C1CC[C@@H]1[C@@H]2C(=O)C[C@@]2(C)[C@H]1CC[C@]2(O)C(=O)CO [PREDNISONE]
ABSOLUTE BASOPHIL (72 h, time 3 day): 0 CELLS/uL
ABSOLUTE EOSINOPHIL (72 h, time 3 day): 0 CELLS/uL
ABSOLUTE LYMPHOCYTE (72 h, time 3 day): 13566 CELLS/uL
ABSOLUTE MONOCYTE (72 h, time 3 day): 151.33 CELLS/uL
ABSOLUTE SEGMENTED NEUTROPHIL (72 h, time 3 day): 1516 CELLS/uL
BASOPHIL (72 h, time 3 day): 0%
EOSINOPHIL (72 h, time 3 day): 0%
ERYTHROCYTE COUNT (72 h, time 3 day): 5.56 x10E6/uL
HEMATOCRIT (72 h, time 3 day): 34.8%
HEMOGLOBIN (72 h, time 3 day): 13.33 G/DL
LEUKOCYTE COUNT (72 h, time 3 day): 15.23 x10E3/uL
LYMPHOCYTE (72 h, time 3 day): 89%
MEAN CORPUSCULAR HEMOGLOBIN (72 h, time 3 day): 24 pg
MEAN CORPUSCULAR HEMOGLOBIN CONCENTRATION (72 h, time 3 day): 38.33 G/DL
MEAN CORPUSCULAR VOLUME (72 h, time 3 day): 62.6 fL
MONOCYTE (72 h, time 3 day): 1%
NEUTROPHIL (72 h, time 3 day): 10%
NUCLEATED RED BLOOD CELLS (72 h, time 3 day): 0.33 /100WBC
PLATELET COUNT (72 h, time 3 day): 1291 x10E3/uL
ALANINE AMINOTRANSFERASE (72 h, time 3 day): 51.67 u/L
ALBUMIN (72 h, time 3 day): 4.43 G/DL
ALKALINE PHOSPHATASE (72 h, time 3 day): 455.67 u/L
ASPARTATE AMINOTRANSFERASE (72 h, time 3 day): 87.33 u/L
BLOOD UREA NITROGEN (72 h, time 3 day): 16 mg/dL
CARBON DIOXIDE (72 h, time 3 day): 24 mmol/L
CHLORIDE (72 h, time 3 day): 107.33 MEQ/L
CHOLESTEROL (72 h, time 3 day): 68.67 mg/dL
CREATINE PHOSPHOKINASE (72 h, time 3 day): 294.67 u/L
CREATININE (72 h, time 3 day): 0.23 mg/dL
GLUCOSE (72 h, time 3 day): 153.33 mg/dL
LACTATE DEHYDROGENASE (72 h, time 3 day): 398.67 u/L
LIPASE (72 h, time 3 day): 10.67 u/L
PHOSPHORUS (72 h, time 3 day): 13.37 mg/dL
POTASSIUM (72 h, time 3 day): 7 MEQ/L
SODIUM (72 h, time 3 day): 149 MEQ/L
TOTAL BILIRUBIN (72 h, time 3 day): 0.27 mg/dL
TOTAL PROTEIN (72 h, time 3 day): 6.23 G/DL
URIC ACID (72 h, time 3 day): 1.53 mg/dL
ABSOLUTE BASOPHIL (120 h, time 5 day): 0 CELLS/uL
ABSOLUTE EOSINOPHIL (120 h, time 5 day): 43 CELLS/uL
ABSOLUTE LYMPHOCYTE (120 h, time 5 day): 10491.67 CELLS/uL
ABSOLUTE MONOCYTE (120 h, time 5 day): 227.33 CELLS/uL
ABSOLUTE SEGMENTED NEUTROPHIL (120 h, time 5 day): 1004.67 CELLS/uL
BASOPHIL (120 h, time 5 day): 0%
EOSINOPHIL (120 h, time 5 day): 0.33%
ERYTHROCYTE COUNT (120 h, time 5 day): 6.03 x10E6/uL
HEMATOCRIT (120 h, time 5 day): 38.43%
HEMOGLOBIN (120 h, time 5 day): 14.23 G/DL
LEUKOCYTE COUNT (120 h, time 5 day): 11.77 x10E3/uL
LYMPHOCYTE (120 h, time 5 day): 89%
MEAN CORPUSCULAR HEMOGLOBIN (120 h, time 5 day): 23.67 pg
MEAN CORPUSCULAR HEMOGLOBIN CONCENTRATION (120 h, time 5 day): 37.03 G/DL
MEAN CORPUSCULAR VOLUME (120 h, time 5 day): 63.87 fL
MONOCYTE (120 h, time 5 day): 2%
NEUTROPHIL (120 h, time 5 day): 8.67%
NUCLEATED RED BLOOD CELLS (120 h, time 5 day): 0 /100WBC
PLATELET COUNT (120 h, time 5 day): 1197.33 x10E3/uL
ALANINE AMINOTRANSFERASE (120 h, time 5 day): 65 u/L
ALBUMIN (120 h, time 5 day): 4.63 G/DL
ALKALINE PHOSPHATASE (120 h, time 5 day): 455 u/L
ASPARTATE AMINOTRANSFERASE (120 h, time 5 day): 98.67 u/L
BLOOD UREA NITROGEN (120 h, time 5 day): 16.33 mg/dL
CARBON DIOXIDE (120 h, time 5 day): 24 mmol/L
CHLORIDE (120 h, time 5 day): 104.67 MEQ/L
CHOLESTEROL (120 h, time 5 day): 69.33 mg/dL
CREATINE PHOSPHOKINASE (120 h, time 5 day): 336 u/L
CREATININE (120 h, time 5 day): 0.19 mg/dL
GLUCOSE (120 h, time 5 day): 168.67 mg/dL
LACTATE DEHYDROGENASE (120 h, time 5 day): 329 u/L
LIPASE (120 h, time 5 day): 10.33 u/L
PHOSPHORUS (120 h, time 5 day): 15.57 mg/dL
POTASSIUM (120 h, time 5 day): 7.49 MEQ/L
SODIUM (120 h, time 5 day): 147.77 MEQ/L
TOTAL BILIRUBIN (120 h, time 5 day): 0.17 mg/dL
TOTAL PROTEIN (120 h, time 5 day): 6.6 G/DL
URIC ACID (120 h, time 5 day): 2.67 mg/dL
